Laboratory results: patent publication US11957680B2, “Pyruvate kinase activators for use in treating blood disorders” (Agios Pharmaceuticals, Inc., priority 2017, dated 2024)

What was measured:
wild type PKR [1] = target: T1, wild type PKR (Homo sapiens, UniProt P30613); experiment: PKR (wild type) enzyme AC50 assay, LDH/NADH-coupled, absorbance at 340 nm; format: biochemical; settings: for AC50: Table 2, enzyme assay, read-out: PKR WT AC50; for EC50: Table 4, AC50, enzyme assay, read-out: PKR WT
Outline: (§1)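 LDH/NADH-coupled read-out at 340 nm after ADP (0.2-1.65 mM) addition at room temperature. Beforehand, wild-type, K410E or R510Q human PKR (40-400 ng/well) sat 60 min with compound (top 100 μM, 3-fold, 11 points) plus PEP 0.1-0.5 mM, 180 μM NADH in 50 mM Tris pH 7.5, 100 mM KCl, 5 mM MgCl2, 1 mM DTT, 0.03% BSA.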

wild type PKR [2] = target: T1, wild type PKR; experiment: Cell based ATP assay in purified red blood cells (Cell-Titer-Glo); design: endogenous in cells; host or cells: purified red blood cells from healthy volunteers; settings: overnight at 37° C., ATP levels; for AC50: Table 2, RBCs; for EC50: Table 4, AC50, RBCs
Outline: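 ATP levels were quantified by Cell-Titer-Glo after overnight 37 °C exposure of cells to compound (1:4 dilution series, 0.1% DMSO final). The cells were human erythrocytes, filter-purified to remove leukocytes and plated at 1×10^7 cells/mL in AGAM medium.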

PKR R510Q = PKR R510Q (Homo sapiens, UniProt P30613, R510Q); experiment: PKR mutant assay (R510Q), AC50, LDH/NADH-coupled, absorbance at 340 nm; format: biochemical; settings: for AC50: Table 2, enzyme assay, read-out: PK R510Q AC50; for EC50: Table 4, AC50, enzyme assay, read-out: PK R510Q
Outline: as §1

PKR K410E = PKR K410E (Homo sapiens, UniProt P30613, K410E); experiment: PKR mutant assay (K410E), AC50, LDH/NADH-coupled, absorbance at 340 nm; format: biochemical; settings: for AC50: Table 2, enzyme assay; for EC50: Table 4, AC50, enzyme assay
Outline: as §1

Chain of PKR K410E (P30613 whole entry K410E): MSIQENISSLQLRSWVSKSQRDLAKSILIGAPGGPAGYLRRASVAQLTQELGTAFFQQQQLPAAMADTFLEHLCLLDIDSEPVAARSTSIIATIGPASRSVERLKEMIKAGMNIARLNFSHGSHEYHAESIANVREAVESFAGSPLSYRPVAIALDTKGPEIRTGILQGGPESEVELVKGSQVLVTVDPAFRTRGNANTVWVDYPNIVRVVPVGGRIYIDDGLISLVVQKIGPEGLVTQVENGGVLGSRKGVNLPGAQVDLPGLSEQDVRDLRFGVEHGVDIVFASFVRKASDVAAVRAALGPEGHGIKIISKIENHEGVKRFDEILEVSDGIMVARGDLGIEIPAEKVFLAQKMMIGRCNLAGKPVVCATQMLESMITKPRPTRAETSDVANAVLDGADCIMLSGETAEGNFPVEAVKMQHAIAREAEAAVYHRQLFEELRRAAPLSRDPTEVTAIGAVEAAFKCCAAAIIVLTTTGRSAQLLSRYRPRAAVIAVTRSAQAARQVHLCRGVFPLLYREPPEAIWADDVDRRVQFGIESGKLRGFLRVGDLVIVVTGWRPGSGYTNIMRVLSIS
T1 sequence (P30613 whole entry): as the sequence (P30613 whole entry K410E) above, with E410K counted along it
Chain of PKR R510Q (P30613 whole entry R510Q): as the sequence (P30613 whole entry K410E) above, with E410K, R510Q counted along it

Compound | AC50 (wild type PKR [1]) [µM] | AC50 (wild type PKR [2]) [µM] | AC50 (PKR R510Q) [µM] | AC50 (PKR K410E) [µM] | EC50 (wild type PKR [1]) [µM] | EC50 (wild type PKR [2]) [µM] | EC50 (PKR R510Q) [µM] | EC50 (PKR K410E) [µM]
Cn1ccc(Cc2nc3c(s2)c2cnn(Cc4cccc5[nH]ncc45)c(=O)c2n3C)n1 [Compound 157] | < 0.3 | ≤ 1 | < 0.3 | < 0.3 |  |  |  | 
Cn1c2nc(Cc3ccccn3)sc2c2cnn(Cc3cccc4[nH]ncc34)c(=O)c21 [Compound 151] | < 0.3 | ≤ 1 | < 0.3 | < 0.3 |  |  |  | 
Cn1c2nc(Cc3cccc4[nH]c(=O)[nH]c34)sc2c2cnn(Cc3cccc4[nH]ncc34)c(=O)c21 [Compound 245] |  |  |  |  | 0.301 to 0.8 | ≤ 1 | < 0.3 | 0.301 to 0.8
Cn1c2nc(C(N)c3cc[nH]n3)sc2c2cnn(Cc3cccc4[nH]ncc34)c(=O)c21 (stereo not drawn) [Compound 177] | < 0.3 | ≤ 1 | < 0.3 | < 0.3 |  |  |  | 
Cn1c2nc(Cc3cc[nH]n3)sc2c2cnn(Cc3ccc(C#N)cc3)c(=O)c21 [Compound 175] | < 0.3 | ≤ 1 | < 0.3 | < 0.3 |  |  |  | 
Cn1c2nc(Cc3cccc4[nH]ncc34)sc2c2cnn(Cc3cccc4[nH]ncc34)c(=O)c21 [Compound 143] | < 0.3 | > 1 | < 0.3 | < 0.3 |  |  |  | 
Cn1c2nc(Cc3cc[nH]n3)sc2c2cnn(Cc3n[nH]c4ncccc34)c(=O)c21 [Compound 374] |  |  |  |  | < 0.3 | ≤ 1 | < 0.3 | < 0.3
COc1ccccc1Cn1ncc2c3sc(C)nc3n(C)c2c1=O [Compound 8] | > 0.8 | > 1 | 0.301 to 0.8 | 0.301 to 0.8 |  |  |  | 
Cn1ncc2cc(Cn3ncc4c5sc(Cc6cc[nH]n6)nc5n(C)c4c3=O)ccc21 [Compound 224] |  |  |  |  | < 0.3 | ≤ 1 | < 0.3 | < 0.3
